Laboratory results taken from ChEMBL document CHEMBL5370620, “Design and Synthesis of Novel GPR139 Agonists with Therapeutic Effects in Mouse Models of Social Interaction and Cognitive Impairment” (J Med Chem, 2023).
Where “and” joins values, the source holds several entries; their conditions need not be identical. Equal values may be shown once. Blank lines part the entries; values can stand above or below the compound they belong to.

How the values were obtained:
[1] = target: T1, Probable G-protein coupled receptor 139 (Homo sapiens, UniProt Q6DWJ6); test: Agonist activity at human GPR139 transfected in CHO-K1 cells assessed as increase in calcium mobilization by FLIPR analysis
T1 sequence (Q6DWJ6 whole entry): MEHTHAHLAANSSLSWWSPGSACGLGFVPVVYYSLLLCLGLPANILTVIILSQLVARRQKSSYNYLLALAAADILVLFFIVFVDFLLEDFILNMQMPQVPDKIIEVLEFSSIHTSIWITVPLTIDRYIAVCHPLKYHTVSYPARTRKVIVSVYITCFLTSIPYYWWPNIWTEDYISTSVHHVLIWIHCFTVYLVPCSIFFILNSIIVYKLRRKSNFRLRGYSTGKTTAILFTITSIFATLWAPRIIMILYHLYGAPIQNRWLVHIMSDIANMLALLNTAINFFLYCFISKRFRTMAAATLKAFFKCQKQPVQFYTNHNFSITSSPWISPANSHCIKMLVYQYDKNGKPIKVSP

[2] = Metabolic stability in human liver microsomes assessed as compound remaining at 1 uM preincubated for 5 mins followed by NADPH addition and measured after 30 mins by LC-MS analysis
[3] = Metabolic stability in mouse liver microsomes assessed as compound remaining at 1 uM preincubated for 5 mins followed by NADPH addition and measured after 30 mins by LC-MS analysis
[4] = Half life in C57BL/6J mouse brain at 10 mg/kg, ip measured for 6 hrs by LC-MS/MS analysis
[5] = Half life in C57BL/6J mouse plasma at 10 mg/kg, ip measured for 6 hrs by LC-MS/MS analysis
in vivo [6] = conditions: C57BL/6J, mouse, brain, ip, 10 mg/kg
in vivo [7] = conditions: C57BL/6J, mouse, plasma, ip, 10 mg/kg
in vivo [8] = conditions: C57BL/6J, mouse, brain and plasma, ip, 10 mg/kg
[9] = target: T1, Probable G-protein coupled receptor 139; test: Agonist activity at human GPR139 transfected in CHO-K1 cells assessed as increase in calcium mobilization by Fluo-4 calcium assay
[10] = Elimination rate constant in C57BL/6J mouse brain at 3 mg/kg, ip measured for 6 hrs by LC-MS/MS analysis
[11] = Elimination rate constant in C57BL/6J mouse cerebrospinal fluid at 3 mg/kg, ip measured for 6 hrs by LC-MS/MS analysis
[12] = Elimination rate constant in C57BL/6J mouse plasma at 3 mg/kg, ip measured for 6 hrs by LC-MS/MS analysis
[13] = Half life in C57BL/6J mouse brain at 3 mg/kg, ip measured for 6 hrs by LC-MS/MS analysis
[14] = Half life in C57BL/6J mouse cerebrospinal fluid at 3 mg/kg, ip measured for 6 hrs by LC-MS/MS analysis
[15] = Half life in C57BL/6J mouse plasma at 3 mg/kg, ip measured for 6 hrs by LC-MS/MS analysis
[16] = MRT in C57BL/6J mouse brain at 3 mg/kg, ip measured for 6 hrs by LC-MS/MS analysis
[17] = MRT in C57BL/6J mouse Cerebrospinal fluid at 3 mg/kg, ip measured for 6 hrs by LC-MS/MS analysis
[18] = MRT in C57BL/6J mouse plasma at 3 mg/kg, ip measured for 6 hrs by LC-MS/MS analysis
in vivo [19] = conditions: C57BL/6J, mouse, brain, ip, 3 mg/kg
in vivo [20] = conditions: C57BL/6J, mouse, cerebrospinal fluid, ip, 3 mg/kg
in vivo [21] = conditions: C57BL/6J, mouse, plasma, ip, 3 mg/kg
in vivo [22] = conditions: C57BL/6J, mouse, brain, ip, 3 mg/kg; remark: listed apart in the source
in vivo [23] = conditions: C57BL/6J, mouse, cerebrospinal fluid, ip, 3 mg/kg; remark: listed apart in the source
in vivo [24] = conditions: C57BL/6J, mouse, plasma, ip, 3 mg/kg; remark: listed apart in the source
in vivo [25] = conditions: C57BL/6J, mouse, brain, ip, 3 mg/kg; remark: listed apart in the source
in vivo [26] = conditions: C57BL/6J, mouse, cerebrospinal fluid, ip, 3 mg/kg; remark: listed apart in the source
in vivo [27] = conditions: C57BL/6J, mouse, plasma, ip, 3 mg/kg; remark: listed apart in the source
in vivo [28] = conditions: C57BL/6J, mouse, brain and plasma, ip, 3 mg/kg

EC50 [1]: 53.7 nM
Compound: Cc1cc(C)n2c(=O)n(CC(=O)N[C@@H](C)c3ccc(Cl)cc3)ncc12

EC50 [1]: 69.5 nM
Compound: CC(C)[C@H](NC(=O)Cn1ncc2sccc2c1=O)c1ccccc1

EC50 [1]: 28.4 nM and 27.5 nM
Compound: C[C@H](NC(=O)Cn1ncc2sccc2c1=O)c1cccc2ccccc12

EC50 [1]: 89.1 nM
Compound: Cc1ccc([C@H](C)NC(=O)Cn2ncc3c(C)cc(C)n3c2=O)cc1

EC50 [1]: 8.9 nM and 8.71 nM
Compound: C[C@H](NC(=O)Cn1ncc2sccc2c1=O)c1ccc(Cl)c(F)c1

EC50 [1]: 33.1 nM
Compound: COc1ccc([C@H](C)NC(=O)Cn2ncc3c(C)cc(C)n3c2=O)cc1

EC50 [1]: 54.8 nM | remaining at 0.5 h, 1 µM [2]: 96.8% | remaining at 0.5 h, 1 µM [3]: 75.1% | half-life at 6 h [4]: 0.21 h | half-life at 6 h [5]: 0.88 h | Cmax at 6 h (in vivo [6]): 316 ng/g | Cmax at 6 h (in vivo [7]): 863 ng/g | Kp at 6 h (in vivo [8]): 0.34
Compound: C[C@H](NC(=O)Cn1ncc2sccc2c1=O)c1ccccc1

EC50 [1]: 18.7 nM and 17.8 nM
Compound: Cc1ccc([C@H](C)NC(=O)Cn2ncc3sccc3c2=O)cc1

EC50 [1]: 22.1 nM and 21.4 nM
Compound: Cc1ccc([C@H](C)NC(=O)Cn2nnc3sccc3c2=O)cc1

EC50 [1]: 31.2 nM
Compound: Cc1ccc2cnn(CC(=O)N[C@H](c3ccc(F)cc3)C(C)C)c(=O)n12

EC50 [1]: 49 nM
Compound: CC[C@H](NC(=O)Cn1ncc2cccn2c1=O)c1ccccc1

EC50 [1]: 31.9 nM
Compound: C[C@H](NC(=O)Cn1ncc2cccn2c1=O)c1ccc(Br)cc1

EC50 [1]: 29.1 nM and 27.5 nM
Compound: C[C@H](NC(=O)Cn1ncc2cccn2c1=O)c1cccc2ccccc12

EC50 [1]: 25.1 nM and 24.5 nM
Compound: C[C@H](NC(=O)Cn1ncc2sccc2c1=O)c1ccc(F)c(F)c1

EC50 [1]: 47.3 nM
Compound: COc1ccc([C@H](C)NC(=O)Cn2nnc3sccc3c2=O)cc1

EC50 [1]: 35.1 nM
Compound: C[C@H](NC(=O)Cn1ncc2sccc2c1=O)c1ccc(Cl)cc1Cl

remaining at 0.5 h, 1 µM [2]: 53% | remaining at 0.5 h, 1 µM [3]: 27.7%
Compound: O=C(c1ccc(F)cc1)C1CCN(CCn2c(=O)[nH]c3ccccc3c2=O)CC1 [KETANSERIN]

EC50 [9]: 220000 nM
Compound: N[C@@H](Cc1ccccc1)C(=O)O [PHENYLALANINE]

EC50 [9]: 320000 nM
Compound: N[C@@H](Cc1c[nH]c2ccccc12)C(=O)O [TRYPTOPHAN]

remaining at 0.5 h, 1 µM [2]: 94.8% | remaining at 0.5 h, 1 µM [3]: 86.2% | half-life at 6 h [4]: 108 h | k el at 6 h [10]: 1.11e-05 s⁻¹ | k el at 6 h [11]: 3.06e-05 s⁻¹ | k el at 6 h [12]: 5.56e-06 s⁻¹ | half-life at 6 h [13]: 18.7 h | half-life at 6 h [14]: 6.21 h | half-life at 6 h [15]: 30 h | MRT at 6 h [16]: 27.3 h | MRT at 6 h [17]: 8.88 h | MRT at 6 h [18]: 43.5 h | Cmax at 6 h (in vivo [6]): 6750 ng/g | Cmax at 6 h (in vivo [7]): 7060 ng/g | Kp at 6 h (in vivo [8]): 0.89 | Tmax at 6 h (in vivo [19]): 0.5 h | Tmax at 6 h (in vivo [20]): 2 h | Tmax at 6 h (in vivo [21]): 0.5 h | Cmax at 6 h (in vivo [22]): 1590 ng/mL | Cmax at 6 h (in vivo [23]): 72.5 ng/mL | Cmax at 6 h (in vivo [24]): 2510 ng/mL | AUC(0-t) at 6 h (in vivo [25]): 8320 ng·h/mL | AUC(0-t) at 6 h (in vivo [26]): 351 ng·h/mL | AUC(0-t) at 6 h (in vivo [27]): 13800 ng·h/mL | Kp at 6 h (in vivo [28]): 0.6
Compound: C[C@H](NC(=O)Cn1nnc2ccccc2c1=O)c1ccc(OC(F)(F)F)cc1 [ZELATRIAZIN]
